Tested on: Human articular chondrocytes
Experiment: Synthesis of extracellular aggrecans by chondrocytes cultured in agarose gel (35S incorporation)
Assay type: cell-based
Conditions: 2.5 μg/ml, 48 hours with Na2 35SO4 after culturing for two weeks; for Amount of 35S-aggrecans associated with the cells: cell-associated fraction; for Amount of 35S-aggrecans in the medium: incubation medium fraction; for Amount of 35S-aggrecans in the interterritorial matrix: interterritorial matrix fraction
Description: Evaluation of the in vitro effects of polysulphated cyclodextrins on the synthesis of extracellular aggrecans by chondrocytes.
Human articular chondrocytes are isolated according to the methods described by W. T. Green Jr (Clin. Orthop., 1971, 75, 248-260) and K. E. Kuettner et al. (J. Cell. Biol., 1982, 93, 743-750).
The chondrocytes are then cultured in agarose gel, in accordance with the method described by P. D. Benya et al. (Cell., 1982, 30, 215-224) and modified according to M. Cornelissen et al. (J. Tiss. Cult. Meth., 1993, 15, 139-146) and according to G. Verbruggen et al. (Clin. Exp. Rheumatol, 1990, 8, 371-378).
Synthesis of aggrecans: This is measured by determining the incorporation of 35S, supplied by a radioactive precursor, sodium sulphate Na2^35SO4. After culturing for two weeks, 10 μCi/ml of the radio-labelled precursor are introduced into the culture medium for 48 hours, as well as the compounds under test (polysulphated α-, β- and γ-cyclodextrins) or the reference compounds (chondroitin sulphate and polysulphate) at an end concentration of 2.5 μg/ml.
The newly synthesised ^35S-aggrecans accumulate partly in the intercellular agarose medium or are released into the incubation medium.
At the end of the incubation period, the agarose gel is broken up mechanically and is then digested with 3 ml of a 50 U/ml solution of […] in a 0.067M phosphate buffer at pH 6.0, in the presence of proteinase inhibitors.
The suspension thereby obtained is centrifuged; the supernatant, which comprises the ^35S-aggrecans of the interterritorial matrix, and the incubation medium, comprising the metabolites of ^35S-aggrecans released into the extracellular matrix, are combined for subsequent chromatography.
The centrifuged pellet, comprising the chondrocytes and the ^35S-aggrecans associated therewith, is treated for 48 hours with 1 ml of a 4.0M solution of guanidinium chloride in a 0.05M acetate buffer at pH 5.8 comprising the proteinase inhibitors. The objective of this operation is to extract the ^35S-aggrecans associated with the cells. The solution obtained is centrifuged to separate the cells from the supernatant, which is separated off for subsequent chromatography. The chromatography operations on the various fractions obtained are carried out on Sephadex G25 gel in a pH 6.8 phosphate buffer containing 0.01M Na2SO4, so as to separate the ^35S-aggrecans from the free Na2^35SO4.
The radioactivity of each of the macromolecular eluates obtained is measured and related to the number of chondrocytes contained in the initial culture and is expressed in terms of pg of SO4 incorporated into the aggrecans, per million chondrocytes and per hour.

Row | Substance | Amount of 35S-aggrecans associated with the cells | Amount of 35S-aggrecans in the medium | Amount of 35S-aggrecans in the interterritorial matrix
1 | chondroitin sulphate [CS, reference compound] | 1373 pg of SO4 incorporated into the aggrecans, per million chondrocytes and per hour | 2187 pg of SO4 incorporated into the aggrecans, per million chondrocytes and per hour | 6589 pg of SO4 incorporated into the aggrecans, per million chondrocytes and per hour
2 | polysulphated α-cyclodextrin [α CD] | 1315 pg of SO4 incorporated into the aggrecans, per million chondrocytes and per hour | 1589 pg of SO4 incorporated into the aggrecans, per million chondrocytes and per hour | 8036 pg of SO4 incorporated into the aggrecans, per million chondrocytes and per hour
3 | polysulphated γ-cyclodextrin [γ CD] | 2907 pg of SO4 incorporated into the aggrecans, per million chondrocytes and per hour | 3873 pg of SO4 incorporated into the aggrecans, per million chondrocytes and per hour | 8232 pg of SO4 incorporated into the aggrecans, per million chondrocytes and per hour
4 | chondroitin polysulphate [CPS, reference compound] | 1392 pg of SO4 incorporated into the aggrecans, per million chondrocytes and per hour | 2519 pg of SO4 incorporated into the aggrecans, per million chondrocytes and per hour | 6446 pg of SO4 incorporated into the aggrecans, per million chondrocytes and per hour
5 | polysulphate β-cyclodextrin [β CD] | 2262 pg of SO4 incorporated into the aggrecans, per million chondrocytes and per hour | 1658 pg of SO4 incorporated into the aggrecans, per million chondrocytes and per hour | 6232 pg of SO4 incorporated into the aggrecans, per million chondrocytes and per hour

Reference: patent US6930098B2, “Use of polysulphated cyclodextrins for treating osteoarthritis” (Universiteit Gent, priority 2000, dated 2005)
